Here are results for seven molecules from ChEMBL document CHEMBL3217617 (Medchemcomm, 2012).

In test [1] the target is T1, Histone deacetylase 3 (Homo sapiens, UniProt O15379). The test can be described thus: Inhibition of human recombinant HDAC3 expressed in Sf21 insect cells using Ac-NH-GGK(Ac)-AMC as substrate after 180 mins by fluorescence assay.
Test [2] concerns the target Histone deacetylase. Description: Inhibition of HDAC in human HeLa cell nuclear extracts using Ac-NH-GGK(Ac)-AMC as substrate after 180 mins by fluorescence assay. It counts as protein assay.
A further test has as its target Histone deacetylase 1 (Homo sapiens, UniProt Q13547). Description: Inhibition of human recombinant HDAC1 expressed in human HEK293 cells using Ac-NH-GGK(Ac)-AMC as substrate after 180 mins by fluorescence assay.
Test [3] is described as follows: Cytotoxicity against human SKBR3 cells by Alamar Blue assay. Format: functional, cell-based. The following applies: SK-BR-3. (Resazurin is reduced to fluorescent resorufin, in cell work by metabolically active cells.)
The test system of the next test is A549. The test can be described thus: Cytotoxicity against human A549 cells by Alamar Blue assay. Format: functional, cell-based.
The target in test [4] is Histone deacetylase. The test can be described thus: Inhibition of HDAC in human HeLa cells using Boc-K(Ac)-AMC as substrate preincubated for 4 hrs before substrate addition measured after 3 hrs by fluorescence assay. It counts as cell-based.
The nature of test [5]: Cytotoxicity against human CAL27 cells by Alamar Blue assay. It counts as functional, cell-based. The following applies: CAL-27.
In the next test the target is T2, Histone deacetylase 8 (Homo sapiens, UniProt Q9BY41).
T2 sequence (Q9BY41 whole entry): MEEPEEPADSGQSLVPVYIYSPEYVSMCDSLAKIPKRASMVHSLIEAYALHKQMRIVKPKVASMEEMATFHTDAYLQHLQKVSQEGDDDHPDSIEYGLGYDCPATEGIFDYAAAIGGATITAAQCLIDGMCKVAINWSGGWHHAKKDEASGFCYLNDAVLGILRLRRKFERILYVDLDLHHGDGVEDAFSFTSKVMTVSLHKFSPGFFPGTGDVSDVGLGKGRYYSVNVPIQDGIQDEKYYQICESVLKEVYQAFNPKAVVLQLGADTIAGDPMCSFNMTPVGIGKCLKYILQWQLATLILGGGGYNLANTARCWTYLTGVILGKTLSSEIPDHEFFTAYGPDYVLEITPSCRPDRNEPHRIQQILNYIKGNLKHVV
The test can be described thus: Inhibition of human recombinant HDAC8 expressed in Sf21 insect cells using Ac-NH-GGK(Ac)-AMC as substrate after 180 mins by fluorescence assay.

The test system of another test is A-431. The test can be described thus: Cytotoxicity against human A431 cells by Alamar Blue assay. Format: functional, cell-based.
For the next test, the system named is SK-OV-3. Description: Cytotoxicity against human SKOV3 cells by Alamar Blue assay. It counts as functional, cell-based.
A further test deals with HeLa. The test can be described thus: Cytotoxicity against human HeLa cells by Alamar Blue assay. It counts as functional, cell-based.
Test [6] addresses T3, Protein deacetylase HDAC6 (Homo sapiens, UniProt Q9UBN7).
T3 sequence (Q9UBN7 whole entry): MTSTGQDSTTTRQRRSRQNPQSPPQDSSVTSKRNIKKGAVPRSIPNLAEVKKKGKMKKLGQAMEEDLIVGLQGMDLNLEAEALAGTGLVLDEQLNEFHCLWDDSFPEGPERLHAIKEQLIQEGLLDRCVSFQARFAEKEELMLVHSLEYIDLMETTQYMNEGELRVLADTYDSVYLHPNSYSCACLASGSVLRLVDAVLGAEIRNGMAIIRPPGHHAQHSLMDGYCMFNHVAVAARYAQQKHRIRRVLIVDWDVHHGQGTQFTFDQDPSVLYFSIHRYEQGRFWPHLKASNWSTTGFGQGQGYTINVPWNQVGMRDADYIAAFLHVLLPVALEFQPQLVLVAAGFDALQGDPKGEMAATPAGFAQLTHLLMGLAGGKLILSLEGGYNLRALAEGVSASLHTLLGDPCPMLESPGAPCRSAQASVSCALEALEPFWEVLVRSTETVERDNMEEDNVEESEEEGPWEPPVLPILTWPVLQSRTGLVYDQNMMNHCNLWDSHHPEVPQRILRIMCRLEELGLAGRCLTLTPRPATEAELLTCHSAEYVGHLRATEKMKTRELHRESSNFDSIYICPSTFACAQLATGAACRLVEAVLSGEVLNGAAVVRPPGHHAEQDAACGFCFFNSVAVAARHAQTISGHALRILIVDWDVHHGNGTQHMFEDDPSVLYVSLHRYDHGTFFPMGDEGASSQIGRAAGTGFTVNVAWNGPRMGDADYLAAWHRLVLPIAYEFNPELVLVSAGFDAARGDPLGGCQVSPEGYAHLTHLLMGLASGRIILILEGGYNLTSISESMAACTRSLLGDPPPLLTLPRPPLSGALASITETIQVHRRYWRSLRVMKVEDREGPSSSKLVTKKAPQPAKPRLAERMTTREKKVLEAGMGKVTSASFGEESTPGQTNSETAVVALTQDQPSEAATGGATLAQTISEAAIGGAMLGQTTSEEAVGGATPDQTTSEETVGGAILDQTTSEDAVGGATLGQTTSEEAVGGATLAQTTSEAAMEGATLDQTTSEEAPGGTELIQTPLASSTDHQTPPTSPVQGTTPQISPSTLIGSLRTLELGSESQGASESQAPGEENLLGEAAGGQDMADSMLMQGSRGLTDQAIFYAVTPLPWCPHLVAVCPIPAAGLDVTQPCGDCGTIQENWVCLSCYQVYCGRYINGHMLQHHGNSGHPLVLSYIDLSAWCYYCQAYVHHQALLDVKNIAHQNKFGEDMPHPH
The test can be described thus: Inhibition of human recombinant HDAC6 expressed in human HEK293 cells using Ac-NH-GGK(Ac)-AMC as substrate after 180 mins by fluorescence assay.

Test [7] concerns the target Epidermal growth factor receptor (Homo sapiens, UniProt P00533). Description: Inhibition of recombinant EGFR (unknown origin) using poly-Glu-Tyr peptide as substrate.
Test [8] deals with Cyclin-dependent kinase 2 (Homo sapiens, UniProt P24941). The test can be described thus: Inhibition of recombinant CDK2 (unknown origin) using poly-Glu-Tyr peptide as substrate.
In the next test the target is Insulin receptor (Homo sapiens, UniProt P06213). Description: Inhibition of recombinant InsR (unknown origin) using poly-Glu-Tyr peptide as substrate.
Test [9] concerns the target Histone deacetylase (Homo sapiens) (UniProt Q13547+O15379+Q9UBN7+Q92769+Q9UQL6+Q8WUI4+Q9BY41+Q96DB2+P56524+Q9UKV0+Q969S8). Description: Inhibition of HDAC in human HeLa cell nuclear extracts using Ac-NH-GGK(Ac)-AMC as substrate after 180 mins by fluorescence assay relative to control. Format: protein assay.
For test [10], the target named is Serine/threonine-protein kinase PLK1 (Homo sapiens, UniProt P53350). The test can be described thus: Inhibition of recombinant Plk1 (unknown origin) using poly-Glu-Tyr peptide as substrate.
The target in test [11] is Platelet-derived growth factor receptor beta (Homo sapiens, UniProt P09619). Description: Inhibition of recombinant PDGFRbeta (unknown origin) using poly-Glu-Tyr peptide as substrate.
The target in test [12] is Receptor tyrosine-protein kinase erbB-2 (Homo sapiens, UniProt P04626). The test can be described thus: Inhibition of recombinant HER2 (unknown origin) using poly-Glu-Tyr peptide as substrate.
For test [13], the target named is Tyrosine-protein kinase ABL1 (Homo sapiens, UniProt P00519). Description: Inhibition of recombinant Abl1 (unknown origin) using poly-Glu-Tyr peptide as substrate.
Test [14] in a line: Inhibition of recombinant PKA (unknown origin) using poly-Glu-Tyr peptide as substrate. On the set-up: species or system Homo sapiens.
The target of test [15] is T1, Histone deacetylase 3. Description: Inhibition of human recombinant HDAC3 expressed in Sf21 insect cells using Ac-NH-GGK(Ac)-AMC as substrate after 180 mins by fluorescence assay relative to control.

T1 sequence (O15379 whole entry): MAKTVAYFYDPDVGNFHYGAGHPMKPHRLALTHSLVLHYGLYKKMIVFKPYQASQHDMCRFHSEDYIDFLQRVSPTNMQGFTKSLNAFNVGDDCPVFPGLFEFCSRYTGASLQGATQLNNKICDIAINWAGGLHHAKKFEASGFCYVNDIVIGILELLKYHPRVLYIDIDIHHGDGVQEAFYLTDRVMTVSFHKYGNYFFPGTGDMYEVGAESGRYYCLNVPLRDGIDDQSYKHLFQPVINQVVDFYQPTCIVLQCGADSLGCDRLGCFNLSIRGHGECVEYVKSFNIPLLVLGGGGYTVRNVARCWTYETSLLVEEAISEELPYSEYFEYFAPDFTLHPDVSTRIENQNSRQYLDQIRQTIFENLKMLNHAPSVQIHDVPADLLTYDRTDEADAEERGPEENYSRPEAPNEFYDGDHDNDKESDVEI
Sequence of Receptor tyrosine-protein kinase erbB-2 (P04626 whole entry): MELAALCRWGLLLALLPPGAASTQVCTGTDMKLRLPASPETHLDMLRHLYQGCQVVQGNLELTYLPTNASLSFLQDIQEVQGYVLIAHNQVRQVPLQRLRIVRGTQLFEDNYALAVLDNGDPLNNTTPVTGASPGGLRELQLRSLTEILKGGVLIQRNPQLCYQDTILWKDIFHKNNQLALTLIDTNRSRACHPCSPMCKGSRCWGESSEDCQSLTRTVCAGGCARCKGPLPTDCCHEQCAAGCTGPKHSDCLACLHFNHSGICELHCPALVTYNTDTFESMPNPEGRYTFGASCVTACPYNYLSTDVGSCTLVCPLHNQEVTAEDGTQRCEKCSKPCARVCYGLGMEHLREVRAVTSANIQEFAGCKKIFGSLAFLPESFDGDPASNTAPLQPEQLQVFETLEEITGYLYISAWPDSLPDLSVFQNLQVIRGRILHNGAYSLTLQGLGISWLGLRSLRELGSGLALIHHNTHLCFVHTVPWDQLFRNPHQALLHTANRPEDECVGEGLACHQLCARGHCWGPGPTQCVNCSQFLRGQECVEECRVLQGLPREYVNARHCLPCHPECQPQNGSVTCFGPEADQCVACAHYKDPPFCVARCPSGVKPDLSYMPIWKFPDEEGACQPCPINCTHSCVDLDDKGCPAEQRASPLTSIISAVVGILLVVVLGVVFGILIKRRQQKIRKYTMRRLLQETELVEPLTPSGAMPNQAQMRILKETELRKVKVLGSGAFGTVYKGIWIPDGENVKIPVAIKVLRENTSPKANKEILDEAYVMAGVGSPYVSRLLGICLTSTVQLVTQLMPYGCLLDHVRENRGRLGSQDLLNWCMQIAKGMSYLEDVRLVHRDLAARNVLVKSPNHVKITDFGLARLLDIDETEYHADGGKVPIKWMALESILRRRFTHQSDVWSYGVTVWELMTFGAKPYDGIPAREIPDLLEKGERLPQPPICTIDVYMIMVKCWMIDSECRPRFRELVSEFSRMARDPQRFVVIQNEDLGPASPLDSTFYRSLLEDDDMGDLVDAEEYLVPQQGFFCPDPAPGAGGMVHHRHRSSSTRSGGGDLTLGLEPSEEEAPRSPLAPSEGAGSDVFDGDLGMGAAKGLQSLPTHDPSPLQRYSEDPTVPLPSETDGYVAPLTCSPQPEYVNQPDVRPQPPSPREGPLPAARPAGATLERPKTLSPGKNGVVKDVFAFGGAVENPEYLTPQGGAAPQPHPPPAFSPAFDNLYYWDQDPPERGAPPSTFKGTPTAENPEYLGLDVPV
Sequence of Tyrosine-protein kinase ABL1 (P00519 whole entry): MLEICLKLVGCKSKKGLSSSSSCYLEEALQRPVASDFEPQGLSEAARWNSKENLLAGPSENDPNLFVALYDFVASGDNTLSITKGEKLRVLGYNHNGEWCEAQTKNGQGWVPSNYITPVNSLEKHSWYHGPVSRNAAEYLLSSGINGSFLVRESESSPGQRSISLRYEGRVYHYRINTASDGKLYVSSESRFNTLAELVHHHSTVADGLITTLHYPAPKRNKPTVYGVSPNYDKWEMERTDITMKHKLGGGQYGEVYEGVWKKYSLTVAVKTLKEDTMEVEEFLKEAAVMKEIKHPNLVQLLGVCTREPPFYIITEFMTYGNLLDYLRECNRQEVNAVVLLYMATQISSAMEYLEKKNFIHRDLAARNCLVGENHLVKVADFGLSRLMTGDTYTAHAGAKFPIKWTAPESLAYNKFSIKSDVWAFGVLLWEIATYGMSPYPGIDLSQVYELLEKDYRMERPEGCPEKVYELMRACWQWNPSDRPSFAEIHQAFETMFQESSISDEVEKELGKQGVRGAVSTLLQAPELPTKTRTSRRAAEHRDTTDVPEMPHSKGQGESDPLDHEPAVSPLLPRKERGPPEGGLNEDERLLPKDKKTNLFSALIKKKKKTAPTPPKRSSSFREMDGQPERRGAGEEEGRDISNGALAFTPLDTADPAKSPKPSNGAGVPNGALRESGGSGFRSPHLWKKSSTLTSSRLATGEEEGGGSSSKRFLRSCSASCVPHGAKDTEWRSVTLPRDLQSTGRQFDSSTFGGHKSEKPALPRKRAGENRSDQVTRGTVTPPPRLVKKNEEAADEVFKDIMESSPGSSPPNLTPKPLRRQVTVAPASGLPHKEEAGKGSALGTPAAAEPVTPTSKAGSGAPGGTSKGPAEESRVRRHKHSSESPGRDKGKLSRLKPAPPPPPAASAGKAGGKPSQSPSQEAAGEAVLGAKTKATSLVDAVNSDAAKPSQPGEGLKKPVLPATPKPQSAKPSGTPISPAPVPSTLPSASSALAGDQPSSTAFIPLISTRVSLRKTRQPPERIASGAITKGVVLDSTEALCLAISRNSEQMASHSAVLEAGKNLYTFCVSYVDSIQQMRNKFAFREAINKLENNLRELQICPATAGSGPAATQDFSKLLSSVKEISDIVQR
Sequence of Insulin receptor (P06213 28-758 limits assumed): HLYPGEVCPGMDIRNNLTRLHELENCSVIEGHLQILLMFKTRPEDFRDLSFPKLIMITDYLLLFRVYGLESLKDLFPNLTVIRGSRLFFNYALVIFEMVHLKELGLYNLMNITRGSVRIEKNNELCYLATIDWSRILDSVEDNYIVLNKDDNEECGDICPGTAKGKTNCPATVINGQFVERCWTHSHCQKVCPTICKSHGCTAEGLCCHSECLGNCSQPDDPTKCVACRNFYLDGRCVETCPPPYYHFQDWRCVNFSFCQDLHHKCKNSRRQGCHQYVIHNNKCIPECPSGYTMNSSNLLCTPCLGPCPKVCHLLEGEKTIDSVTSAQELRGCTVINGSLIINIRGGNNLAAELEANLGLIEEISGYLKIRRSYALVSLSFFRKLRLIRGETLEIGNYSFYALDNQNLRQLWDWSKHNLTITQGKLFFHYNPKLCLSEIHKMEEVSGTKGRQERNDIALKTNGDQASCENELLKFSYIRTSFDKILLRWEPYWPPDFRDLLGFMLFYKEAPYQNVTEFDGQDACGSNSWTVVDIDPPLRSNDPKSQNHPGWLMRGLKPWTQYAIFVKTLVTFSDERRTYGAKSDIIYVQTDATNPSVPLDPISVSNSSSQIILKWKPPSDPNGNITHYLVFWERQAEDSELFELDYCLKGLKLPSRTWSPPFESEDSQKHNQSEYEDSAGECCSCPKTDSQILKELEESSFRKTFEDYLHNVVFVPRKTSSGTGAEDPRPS
Sequence of Insulin receptor (P06213 763-1382 limits assumed): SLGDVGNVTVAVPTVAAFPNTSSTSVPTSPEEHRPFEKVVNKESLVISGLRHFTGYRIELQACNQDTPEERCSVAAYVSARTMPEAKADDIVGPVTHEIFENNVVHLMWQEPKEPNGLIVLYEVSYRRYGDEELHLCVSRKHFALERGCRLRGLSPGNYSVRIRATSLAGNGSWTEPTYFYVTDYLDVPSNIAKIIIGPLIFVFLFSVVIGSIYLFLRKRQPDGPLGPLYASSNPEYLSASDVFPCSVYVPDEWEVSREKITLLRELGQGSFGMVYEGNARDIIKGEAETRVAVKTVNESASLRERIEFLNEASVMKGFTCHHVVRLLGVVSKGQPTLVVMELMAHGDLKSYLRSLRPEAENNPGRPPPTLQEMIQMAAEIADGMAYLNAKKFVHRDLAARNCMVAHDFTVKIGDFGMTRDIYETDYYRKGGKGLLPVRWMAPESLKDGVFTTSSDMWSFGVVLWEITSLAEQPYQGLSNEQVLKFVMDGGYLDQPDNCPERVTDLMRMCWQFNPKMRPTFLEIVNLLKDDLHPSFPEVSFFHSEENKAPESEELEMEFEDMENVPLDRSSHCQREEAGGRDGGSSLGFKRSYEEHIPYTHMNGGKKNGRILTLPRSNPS
Sequence of Serine/threonine-protein kinase PLK1 (P53350 whole entry): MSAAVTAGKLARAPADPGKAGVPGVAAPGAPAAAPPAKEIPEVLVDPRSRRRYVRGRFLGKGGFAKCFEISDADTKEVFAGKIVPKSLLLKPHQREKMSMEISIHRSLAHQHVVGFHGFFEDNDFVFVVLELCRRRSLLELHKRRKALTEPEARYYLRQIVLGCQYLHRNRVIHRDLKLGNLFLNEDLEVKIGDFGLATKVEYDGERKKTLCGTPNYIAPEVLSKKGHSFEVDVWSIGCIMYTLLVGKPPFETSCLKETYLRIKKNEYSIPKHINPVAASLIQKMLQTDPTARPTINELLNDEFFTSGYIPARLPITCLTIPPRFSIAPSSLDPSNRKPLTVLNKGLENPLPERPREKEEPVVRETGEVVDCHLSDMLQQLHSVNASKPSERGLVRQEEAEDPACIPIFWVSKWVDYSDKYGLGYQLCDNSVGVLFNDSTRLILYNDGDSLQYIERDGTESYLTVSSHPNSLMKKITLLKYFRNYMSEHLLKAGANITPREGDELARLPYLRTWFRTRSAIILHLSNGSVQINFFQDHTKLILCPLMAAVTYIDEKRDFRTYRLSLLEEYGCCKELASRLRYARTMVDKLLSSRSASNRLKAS

As to `C#Cc1cccc(Nc2ncnc3ccc(NC(=O)c4ccc(C(=O)Nc5ccccc5N)cc4)cc23)c1`, the half-inhibitory concentration (IC50) (in general, the concentration that inhibits the measured activity by half) at Histone deacetylase 3 [1] was 0.61 µM; on Histone deacetylase [2] it was more than 32 µM; on Histone deacetylase 1 it was 10.5 µM; in test [3], more than 50 µM; in the test with A549 it was more than 50 µM; on Histone deacetylase [4], more than 15.8 µM. Further, the IC50 in [5] was 0.33 µM; on Histone deacetylase 8, more than 32 µM; with A-431 it was more than 16 µM; in the test on SK-OV-3, more than 50 µM; with HeLa, more than 50 µM; in test [6] it was more than 32 µM.

On to `C#Cc1cccc(Nc2ncnc3ccc(OCc4ccc(C(=O)Nc5ccccc5N)cc4)cc23)c1`, for which the IC50 is 0.078 µM in test [7]; 13 µM in test [8]; 0.55 µM on Histone deacetylase 3 [1]; 36 µM on Insulin receptor; more than 100 µM in test [10]; 7.2 µM in test [11]. Also, the IC50 is 0.2 µM on Histone deacetylase [2]; 0.041 µM at Histone deacetylase 1; 3.4 µM in [3]; 0.066 µM in [12]; 7 µM in test [13]; 0.9 µM in the test on A549. Further, the IC50 at Histone deacetylase [4] is 1.85 µM; in test [5] it was 0.61 µM; on Histone deacetylase 8, more than 32 µM; with A-431, 1.6 µM; in the test with SK-OV-3, 5.1 µM; with HeLa it was 1.35 µM. In addition, the results for the IC50 in [14] and in [6] were more than 100 µM and more than 32 µM, respectively. Moreover, the Imax in test [9] came to 50%.

As for `C#Cc1cccc(Nc2ncnc3cc(OCCOC)c(OCCOC)cc23)c1` [ERLOTINIB], the IC50 at Histone deacetylase 3 [1] is more than 32 µM; at Histone deacetylase [2], more than 32 µM; at Histone deacetylase 1, more than 32 µM; in test [3], 15 µM; with A549, more than 50 µM; on Histone deacetylase [4] it was more than 15.8 µM. Moreover, the IC50 in test [5] was 0.074 µM; at Histone deacetylase 8, more than 32 µM; with A-431 it was 2.5 µM; in the test on SK-OV-3, 31 µM; in the test on HeLa, 8.3 µM; in test [14], more than 100 µM. The IC50 in test [6] was more than 32 µM.

Turning to `C#Cc1cccc(Nc2ncnc3cc(NC(=O)c4ccc(C(=O)Nc5ccccc5N)nc4)ccc23)c1`, the IC50 on Histone deacetylase 3 [1] is 0.32 µM; on Histone deacetylase [2], 0.51 µM; on Histone deacetylase 1 it was 5.6 µM; in test [3], more than 50 µM; with A549, 2.1 µM; against Histone deacetylase [4] it was more than 5.01 µM. In addition, the IC50 in test [5] is 0.45 µM; on Histone deacetylase 8, more than 32 µM; with A-431, 0.79 µM; in the test on SK-OV-3, more than 50 µM; with HeLa it was 1.5 µM; in [6], more than 32 µM. In addition, the Imax in test [9] came out at 30%.

Regarding `C#Cc1cccc(Nc2ncnc3ccc(NC(=O)c4ccc(C(=O)Nc5ccccc5N)s4)cc23)c1`, the IC50 on Histone deacetylase 3 [1] is 0.92 µM; at Histone deacetylase [2], more than 32 µM; on Histone deacetylase 1, 8.6 µM; in [3] it was more than 50 µM; with A549 it was more than 50 µM; on Histone deacetylase [4], more than 15.8 µM. Further, the IC50 in test [5] was 0.41 µM; at Histone deacetylase 8, more than 32 µM; in the test on A-431, more than 16 µM; in the test on SK-OV-3, more than 50 µM; in the test with HeLa, more than 50 µM; in test [6], more than 32 µM.

On to `C#Cc1cccc(Nc2ncnc3ccc(S(=O)(=O)n4ccc(/C=C/C(=O)NO)c4)cc23)c1`, for which the IC50 in test [7] is 1.2 µM; in test [8], more than 100 µM; on Histone deacetylase 3 [1], 0.015 µM; at Insulin receptor, 65 µM; in test [10] it was more than 100 µM; in [11], 70 µM. For the same molecule, the IC50 against Histone deacetylase [2] is 0.0064 µM; at Histone deacetylase 1 it was 0.0065 µM; in test [3] it was 0.19 µM; in [12], 3.4 µM; in [13] it was 27 µM; with A549 it was 0.24 µM. Further, the IC50 at Histone deacetylase [4] stood at 0.034 µM; in [5], 0.16 µM; at Histone deacetylase 8, 0.59 µM; with A-431, 0.26 µM; in the test on SK-OV-3 it was 0.56 µM; in the test on HeLa, 0.5 µM. Also, the values for the IC50 in test [14] and in [6] were more than 100 µM and 0.0073 µM, respectively.

In the case of `Nc1ccccc1NC(=O)c1ccc(COc2ccc3ncnc(Nc4cccc(Br)c4)c3c2)cc1`, the IC50 is 0.033 µM in [7]; 22 µM in [8]; 0.51 µM on Histone deacetylase 3 [1]; 150 µM on Insulin receptor; more than 100 µM in test [10]; 28 µM in [11]. Besides, the IC50 at Histone deacetylase [2] came out at 0.25 µM; at Histone deacetylase 1 it was 0.074 µM; in test [3], 5.1 µM; in test [12] it was 0.039 µM; in test [13], 11 µM; in the test on A549, 1.3 µM. Besides, the IC50 against Histone deacetylase [4] is 2.46 µM; in test [5], 0.62 µM; at Histone deacetylase 8, more than 32 µM; in the test with A-431, 1.7 µM; with SK-OV-3 it was 6.3 µM; in the test on HeLa, 1.45 µM. Further, the 50% inhibitory concentration (IC50) was more than 100 µM in test [14] and more than 32 µM in test [6]. At Histone deacetylase 3 [15], the Imax was found to be 75%.
